The source of these data is patent US6423739B1, “Method for aiding cerebral recovery following neurodegeneration” (Daiichi Pharmaceutical Co., Ltd., priority 2000, dated 2002).

For assay [1], the system named is hippocampal and cortical rat embryo neurons. Kind of assay: Neurite outgrowth in primary cultures of hippocampal and cortical rat embryo neurons. The assay is classed as cell-based.
For assay [2], the system named is patients after a stroke (cerebral infarction or cerebral hemorrhage). Particulars: post-stroke patients, Ohtomo et al. 1994; cited from earlier work.
Assay [3] concerns rats with cerebral embolism. The assay is described as follows: Watermaze spatial learning and retention test in rats with cerebral embolism. The assay is classed as in vivo, rat. An excerpt:
The mechanism of action of nefiracetam for this indication, which is not bound to the nootropic activity of the drug, is unknown, but it is believed that its surprising effect in improving ADL of a patient after a stroke or in the recovery of, or at least in improving the recovery of, a post-stroke patient, is due to a true brain repair. This assumption is confirmed by the effect of nefiracetam on spatial learning and retention in rats with cerebral embolism, treated for 9 days with nefiracetam or vehicle, starting within 24 hours of embolization.
In male Wistar rats weighing 190-220 g a total of 700 microspheres (48 μm in diameter) were injected into the right common carotid artery of each animal, whereby a quasi-immediate embolism occurs. The embolized animals were randomly divided into 2 groups, each of 13 animals with same neurological deficit, designated as “Control” (embolism plus Vehicle), or “Nefiracetam” (embolism plus nefiracetam 10 mg/kg/day). In addition, a group of 13 “Normal (Sham)” non-embolized animals were used. The administration of nefiracetam or of its vehicle started within the same day of embolization and treatment lasted 9 days. Seven days after embolization, the embolized rats were submitted to a watermaze test, said watermaze being adapted from the Morris water task. The time taken to find the platform (latency) was determined. […]

The next assay deals with post-stroke patients. The assay is described as follows: Controlled clinical trial against placebo, symptom scale measuring Activities of Daily Living. In kind it is in vivo, human. An excerpt: The activity of nefiracetam to improve ADL in post-stroke patients has been discovered during a controlled clinical trial against placebo. The compound has been administered orally to 32 post-stroke patients within six months after the event whilst, concurrently, 27 patients received placebo. The two groups of patients were followed during at least 8 weeks and followed up at the end of week 4 and at the end of week 8 on a symptom scale measuring Activities of Daily Living. […] Among the above 59 patients, 19 received nefiracetam and 10 received placebo within three months after stroke. […] The difference was significant (p=0.035, χ^2 test). […] Thus nefiracetam, when administered early after the event, appears to be the first drug which is able to induce a recovery from stroke or, at least, to improve the recovery from stroke.

Molecules are shown by their SMILES.

As to `Cc1cccc(C)c1NC(=O)CN1CCCC1=O` [Nefiracetam, N-(2,6-dimethylphenyl)-2-(2-oxo-1-pyrrolidinyl)acetamide], in assay [1] (concentrations of 0.1, 1, 10 and 100 micromoles/l), the “Neurotrophic effect: neurite outgrowth” value is “significantly increasing neurite outgrowth”. The “Neurotrophic effect in combination with bFGF” value in assay [1] (hippocampal neurons) is given as “potentiated by bFGF”. For the same compound, the “Activities of daily living, nefiracetam vs placebo group” value in assay [2] is reported as “no significant difference between the two groups”. The “Persistence of the effect after washout” value in assay [3] (day 17 after embolization) is listed as “maintained even after washout”. Moreover, the “Difference in learning ability versus vehicle-treated (control) brain-injured animals” value in assay [3] (days 7-9 post-embolism, t-test, p<0.05 compared to control) is “statistically significant”. Moreover, the “Patients showing a moderate or remarkable improvement (Activities of Daily Living)” value with post-stroke patients (19 patients who received nefiracetam within three months after stroke, p=0.035 vs placebo, chi2 test) is on record as roughly 70%. For the same compound, in the assay with post-stroke patients (early treatment after stroke), the Intellectual dysfunction result is on record as “dramatically improved in a high percent of nefiracetam-treated patients”; the “Neurological signs and incontinence” value was “tends to improve”. For the same compound, in the assay on post-stroke patients (oral, 32 post-stroke patients treated within six months after the event, followed at week 4 and week 8), the “Improvement on symptom scale measuring Activities of Daily Living” value is “moderate or remarkable improvement”.
